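Where inhibition never reached the appropriate level, the endpoint shown equals the highest concentration tested. Otherwise, values were interpolated linearly from a five-concentration, 48-hour dose response in 96-well plates. The concentration for 50% growth inhibition is given as GI50. Definition used: TGI = concentration required for complete inhibition of growth.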
Tests used:
Test in all cases: DTP human tumour cell line panel, 48 h; in the data active = GI50 below about 0.43 µM; inactive = the rest
786-0 renal = tested on: 786-0 renal
A498 renal = tested on: A498 renal
MOLT-4 leukemia = tested on: MOLT-4 leukemia
NCI-H23 lung = tested on: NCI-H23 lung
OVCAR-4 ovarian = tested on: OVCAR-4 ovarian
OVCAR-5 ovarian = tested on: OVCAR-5 ovarian
OVCAR-8 ovarian = tested on: OVCAR-8 ovarian
SF-295 CNS = tested on: SF-295 CNS
SN12C renal = tested on: SN12C renal
IGROV1 ovarian = tested on: IGROV1 ovarian

CC(=O)N[C@H](C(=O)N[C@@H](CCCNC(=N)N)C(=O)N[C@@H](CCCCN)C(=O)N[C@@H](CCCNC(=N)N)C(=O)N[C@]1(C)CCCCCC/C=C\CCC[C@@](C)(C(=O)N[C@@H](CCCNC(=N)N)C(=O)N[C@@H](CCC(=O)O)C(=O)N[C@@H](CC(C)C)C(=O)N[C@H](C(=O)N[C@@H](CCC(=O)O)C(N)=O)C(C)C)NC(=O)[C@H](CCC(N)=O)NC(=O)[C@H](CC(C)C)NC(=O)[C@H](CC(C)C)NC(=O)[C@H](CCCNC(=N)N)NC(=O)[C@H](CCCNC(=N)N)NC(=O)[C@H](CC(C)C)NC1=O)C(C)C
2.91 µM: TGI (786-0 renal)
41.2 µM: TGI (OVCAR-5 ovarian)
8.02 µM: TGI (OVCAR-4 ovarian)
> 50 µM: TGI (OVCAR-8 ovarian) | TGI (SN12C renal)
29.4 µM: TGI (MOLT-4 leukemia)
22.4 µM: TGI (A498 renal)
inactive: GI50 (786-0 renal) 1.24 µM | GI50 (A498 renal) 9.32 µM | GI50 (MOLT-4 leukemia) 8.1 µM | GI50 (NCI-H23 lung) 2.77 µM | GI50 (OVCAR-4 ovarian) 1.57 µM | GI50 (OVCAR-5 ovarian) 11.5 µM | GI50 (OVCAR-8 ovarian) 1.6 µM | GI50 (SF-295 CNS) 4.4 µM | GI50 (SN12C renal) 2.33 µM
30.1 µM: TGI (NCI-H23 lung) | TGI (SF-295 CNS)

O=c1ncccn1C1C=C(CO)C(O)C1O (stereo not given)
> 50 µM: TGI (786-0 renal) | TGI (A498 renal) | TGI (MOLT-4 leukemia) | TGI (NCI-H23 lung) | TGI (OVCAR-4 ovarian) | TGI (OVCAR-5 ovarian) | TGI (SF-295 CNS)

Cn1c2ccccc2c2c(=O)c3ccccc3[nH]c21
inactive: GI50 (786-0 renal) 33.7 µM | GI50 (A498 renal) 18 µM | GI50 (IGROV1 ovarian) 64.3 µM | GI50 (MOLT-4 leukemia) > 100 µM | GI50 (NCI-H23 lung) 30.5 µM | GI50 (OVCAR-5 ovarian) 30.8 µM | GI50 (OVCAR-8 ovarian) > 100 µM | GI50 (SF-295 CNS) 82.8 µM | GI50 (SN12C renal) 38.5 µM
> 100 µM: TGI (786-0 renal) | TGI (IGROV1 ovarian) | TGI (MOLT-4 leukemia) | TGI (NCI-H23 lung) | TGI (OVCAR-5 ovarian) | TGI (OVCAR-8 ovarian) | TGI (SF-295 CNS) | TGI (SN12C renal)
64.8 µM: TGI (A498 renal)

COC1OC(C)C(OCc2ccccc2)C(OS(=O)(=O)c2ccc(C)cc2)C1OS(=O)(=O)c1ccc(C)cc1 (stereo not given)
> 100 µM: TGI (786-0 renal) | TGI (IGROV1 ovarian) | TGI (MOLT-4 leukemia) | TGI (NCI-H23 lung) | TGI (OVCAR-4 ovarian) | TGI (OVCAR-5 ovarian) | TGI (OVCAR-8 ovarian) | TGI (SF-295 CNS) | TGI (SN12C renal)

C=CCSc1nc2ccccc2c(=O)n1Cc1ccco1
> 100 µM: TGI (786-0 renal) | TGI (A498 renal) | TGI (IGROV1 ovarian) | TGI (NCI-H23 lung) | TGI (OVCAR-4 ovarian) | TGI (OVCAR-5 ovarian) | TGI (OVCAR-8 ovarian) | TGI (SF-295 CNS) | TGI (SN12C renal)

CCOC(=O)/C(=C/c1cccc(OC)c1)N(CC)CC
> 100 µM: TGI (786-0 renal) | TGI (A498 renal) | TGI (IGROV1 ovarian) | TGI (MOLT-4 leukemia) | TGI (NCI-H23 lung) | TGI (OVCAR-4 ovarian) | TGI (OVCAR-5 ovarian) | TGI (OVCAR-8 ovarian) | TGI (SF-295 CNS)

NC(=O)/C=C/C(=O)O
> 5000 µM: TGI (786-0 renal) | TGI (IGROV1 ovarian) | TGI (MOLT-4 leukemia) | TGI (NCI-H23 lung) | TGI (OVCAR-4 ovarian) | TGI (OVCAR-5 ovarian) | TGI (OVCAR-8 ovarian) | TGI (SF-295 CNS) | TGI (SN12C renal)

O=C1c2cccnc2-c2nc(-c3ccncc3)cc3c2c1nc1ccccc13
24 µM: TGI (OVCAR-8 ovarian)
28.4 µM: TGI (SF-295 CNS)
> 100 µM: TGI (A498 renal) | TGI (MOLT-4 leukemia) | TGI (OVCAR-5 ovarian)
39.9 µM: TGI (786-0 renal)
47.5 µM: TGI (SN12C renal)
28 µM: TGI (NCI-H23 lung)
28.8 µM: TGI (IGROV1 ovarian)
inactive: GI50 (786-0 renal) 15 µM | GI50 (A498 renal) 38.5 µM | GI50 (IGROV1 ovarian) 4.67 µM | GI50 (MOLT-4 leukemia) 5.14 µM | GI50 (NCI-H23 lung) 12.5 µM | GI50 (OVCAR-5 ovarian) 31.2 µM | GI50 (OVCAR-8 ovarian) 10.5 µM | GI50 (SF-295 CNS) 15.1 µM | GI50 (SN12C renal) 20 µM

CCOC(=O)C(=O)Nc1ccccc1C(F)(F)F
> 100 µM: TGI (786-0 renal) | TGI (A498 renal) | TGI (IGROV1 ovarian) | TGI (NCI-H23 lung) | TGI (OVCAR-4 ovarian) | TGI (OVCAR-5 ovarian) | TGI (OVCAR-8 ovarian) | TGI (SF-295 CNS) | TGI (SN12C renal)

C[C@H]1[C@H](C)CC[C@]2(C(=O)NCCNCCN)CC[C@]3(C)C(=CC[C@@H]4[C@@]5(C)CCC(=O)C(C)(C)[C@@H]5CC[C@]43C)[C@H]12
2.98 µM: TGI (SN12C renal)
3.17 µM: TGI (IGROV1 ovarian)
11.3 µM: TGI (OVCAR-5 ovarian)
8.3 µM: TGI (NCI-H23 lung)
4 µM: TGI (OVCAR-4 ovarian)
27.2 µM: TGI (A498 renal)
inactive: GI50 (786-0 renal) 1.74 µM | GI50 (A498 renal) 11.8 µM | GI50 (IGROV1 ovarian) 1.71 µM | GI50 (MOLT-4 leukemia) 2.2 µM | GI50 (NCI-H23 lung) 2.8 µM | GI50 (OVCAR-4 ovarian) 1.93 µM | GI50 (OVCAR-5 ovarian) 2.9 µM | GI50 (SN12C renal) 1.61 µM
4.73 µM: TGI (MOLT-4 leukemia)
3.18 µM: TGI (786-0 renal)

CCCCCCCCCCCCCCCCCCNC(=O)[C@H]1CSC(c2cccs2)N1 (stereo not given in full)
15.7 µM: TGI (MOLT-4 leukemia)
2.49 µM: TGI (786-0 renal)
17.7 µM: TGI (NCI-H23 lung)
inactive: GI50 (786-0 renal) 1.13 µM | GI50 (A498 renal) > 50 µM | GI50 (MOLT-4 leukemia) 0.974 µM | GI50 (NCI-H23 lung) 1.8 µM | GI50 (OVCAR-4 ovarian) 1.56 µM | GI50 (OVCAR-5 ovarian) 1.17 µM | GI50 (OVCAR-8 ovarian) 1.31 µM | GI50 (SF-295 CNS) 5.58 µM | GI50 (SN12C renal) 0.885 µM
3.34 µM: TGI (OVCAR-8 ovarian)
1.76 µM: TGI (SN12C renal)
> 50 µM: TGI (A498 renal) | TGI (OVCAR-4 ovarian) | TGI (SF-295 CNS)
2.57 µM: TGI (OVCAR-5 ovarian)

O=C(O)CCC(NC(=S)S)C(=O)O.[Na+].[Zn+2] (stereo not given)
> 50 µM: TGI (786-0 renal) | TGI (A498 renal) | TGI (IGROV1 ovarian) | TGI (MOLT-4 leukemia) | TGI (NCI-H23 lung) | TGI (OVCAR-4 ovarian) | TGI (OVCAR-5 ovarian) | TGI (OVCAR-8 ovarian) | TGI (SN12C renal)
inactive: GI50 (786-0 renal) > 50 µM | GI50 (A498 renal) > 50 µM | GI50 (IGROV1 ovarian) > 50 µM | GI50 (MOLT-4 leukemia) > 50 µM | GI50 (NCI-H23 lung) > 50 µM | GI50 (OVCAR-4 ovarian) > 50 µM | GI50 (OVCAR-5 ovarian) > 50 µM | GI50 (OVCAR-8 ovarian) > 50 µM | GI50 (SN12C renal) > 50 µM

C=C(CN1CCc2ccccc2C1)c1ccc(C(=O)Nc2ccccc2N)cc1
3.53 µM: TGI (SF-295 CNS)
17.6 µM: TGI (IGROV1 ovarian)
inactive: GI50 (786-0 renal) 1.53 µM | GI50 (IGROV1 ovarian) 1.54 µM | GI50 (MOLT-4 leukemia) 0.72 µM | GI50 (NCI-H23 lung) 0.677 µM | GI50 (OVCAR-4 ovarian) 1.92 µM | GI50 (OVCAR-5 ovarian) 2.64 µM | GI50 (OVCAR-8 ovarian) 1.09 µM | GI50 (SF-295 CNS) 1.27 µM | GI50 (SN12C renal) 0.978 µM
5.32 µM: TGI (SN12C renal)
19.4 µM: TGI (OVCAR-4 ovarian)
13.8 µM: TGI (OVCAR-8 ovarian)
> 20.2 µM: TGI (OVCAR-5 ovarian)
11.6 µM: TGI (786-0 renal)
2.03 µM: TGI (MOLT-4 leukemia)

c1ccc(Cn2cnc3ccc(-c4nc(-c5ccc6c(c5)ncn6C5CCCCC5)cn5ccnc45)cc32)cc1
6.54 µM: TGI (OVCAR-8 ovarian)
inactive: GI50 (786-0 renal) 0.799 µM | GI50 (A498 renal) 1.86 µM | GI50 (IGROV1 ovarian) 2.14 µM | GI50 (MOLT-4 leukemia) 1.67 µM | GI50 (NCI-H23 lung) 1.88 µM | GI50 (OVCAR-4 ovarian) 3.06 µM | GI50 (OVCAR-8 ovarian) 2.6 µM
4.49 µM: TGI (NCI-H23 lung)
> 100 µM: TGI (786-0 renal) | TGI (IGROV1 ovarian) | TGI (MOLT-4 leukemia) | TGI (OVCAR-4 ovarian)
3.57 µM: TGI (A498 renal)

CNC(SC)=C1C(=O)OC(C)(C)OC1=O
> 100 µM: TGI (786-0 renal) | TGI (A498 renal) | TGI (IGROV1 ovarian) | TGI (MOLT-4 leukemia) | TGI (NCI-H23 lung) | TGI (OVCAR-5 ovarian) | TGI (OVCAR-8 ovarian) | TGI (SF-295 CNS) | TGI (SN12C renal)

COc1ccc(-c2nnc(N3CCN(C(=O)CN4CCN(c5ccc(OC)cc5)CC4)CC3)nc2-c2ccc(OC)cc2)cc1
53.1 µM: TGI (OVCAR-5 ovarian)
3.8 µM: TGI (MOLT-4 leukemia)
12.5 µM: TGI (OVCAR-4 ovarian)
40.6 µM: TGI (786-0 renal)
> 78.6 µM: TGI (IGROV1 ovarian)
50.4 µM: TGI (A498 renal)
15.5 µM: TGI (SN12C renal)
inactive: GI50 (786-0 renal) 15.3 µM | GI50 (A498 renal) 25.8 µM | GI50 (IGROV1 ovarian) 6.7 µM | GI50 (MOLT-4 leukemia) 1.63 µM | GI50 (NCI-H23 lung) 9.73 µM | GI50 (OVCAR-4 ovarian) 3.47 µM | GI50 (OVCAR-5 ovarian) 27.6 µM | GI50 (SF-295 CNS) 20.3 µM | GI50 (SN12C renal) 3.2 µM
33.4 µM: TGI (NCI-H23 lung)
> 72.1 µM: TGI (SF-295 CNS)

CC1=C(C(=O)Nc2ccccc2C)C(/C=C/c2ccccc2)C(C(=O)Nc2ccccc2C)=C(C)N1
> 100 µM: TGI (786-0 renal) | TGI (A498 renal) | TGI (IGROV1 ovarian) | TGI (NCI-H23 lung) | TGI (OVCAR-4 ovarian) | TGI (OVCAR-5 ovarian) | TGI (OVCAR-8 ovarian) | TGI (SF-295 CNS) | TGI (SN12C renal)

— PubChem BioAssay (NCI)
